Laboratory results as given in patent US20030073672A1, “Method for treating allergies using substituted pyrazoles” (priority 2001, published 2003).

Experiments:
[1] = tested on: T cell proliferative responses induced by ConA in PBMC; experiment: Ex vivo human T cell-proliferation assay, ConA control; format: cell-based; conditions: PBMC of allergic donors, a pan-T cell mitogen
Description: Reagents. […] Cell culture.

[2] = tested on: human T cell proliferative responses to house dust mite extracts (Der p, Der f) in PBMC; experiment: Ex vivo human T cell-proliferation assay, house dust mite extracts; format: cell-based; conditions: seven days; for human T cell proliferative responses to Der f: PBMC from an allergy donor, Der f extract, titrated doses of compound, FIG. 3
Description: This proliferation consisted primarily of allergen-specific CD4 T cells.

[3] = tested on: invariant chain (Ii) degradation, p10Ii fragment, in PBMC from human blood; experiment: Monitoring cathepsin S inhibition in human blood (p10Ii Western blot); format: cell-based; conditions: incubation for 24 h, SDS-PAGE / Western blot
Protocol: The effect of in vivo administration of cathepsin S inhibitors, in a clinical trial setting, can be monitored by measuring accumulation of an intermediate degradation product of invariant chain (Ii), i.e. the p10Ii fragment, in blood of dosed subjects. After administration of a cathepsin inhibitor for a certain period of time, for example, between 0.01 and 50 mg/kg/day, to result in a blood concentration of between 1 nM-10 μM, for 16-30 h, blood is drawn and white blood cells are purified, e.g. either by lysis of red blood cells or by a Ficoll-Hypaque gradient centrifugation. Whole cell lysates of WBC are then made and analyzed by either a Western blot assay or an ELISA assay. For the Western blot assay, cell lysates are first resolved on SDS-PAGE gels. After transferring to nitrocellulose membranes, Ii and its intermediate degradation products, including the p10Ii, can be detected using a mouse mAb against Ii, e.g. Pin.1, or rabbit polyclonal antibodies specific for the C-terminus of the p10Ii fragment or against the entire p10Ii fragment. For ELISA assay, a pair of antibodies against Ii, including Pin1.1, and a rabbit polyclonal antibody or a mouse monoclonal antibody specific for p10Ii, can be used. The same assay can also be applied to monitor the effect of cathepsin S inhibitors in vivo in animal studies, for example in monkeys, dogs, pigs, rabbits, guinea pigs, and rodents.

[4] = tested on: human T cell proliferative responses to ragweed extracts (short, giant) in PBMC; experiment: Ex vivo human T cell-proliferation assay, ragweed extracts; conditions: PBMC of ragweed-allergic donors, short and giant ragweed extracts, FIG. 2B
allergic volunteers = experiment: Monitoring in vivo inhibition of allergenic response (cutaneous reactions); conditions: allergens deposited subcutaneously

| SMILES | T cell proliferative responses induced by ConA [1] | human T cell proliferative responses to Der f [2] | T cell proliferation (3H-thymidine incorporation) induced by HDM extracts ([2]; PBMC of HDM-allergic donors, Der p or Der f extracts, FIG. 1B) | p10Ii fragment accumulation (block in the degradation of Ii) [3] | T cell proliferation (3H-thymidine incorporation) induced by ragweed extracts [4] | immediate weal and flare response (allergic volunteers; 15 min) | late phase response (induration) (allergic volunteers; 6 h and 24 h) |
| --- | --- | --- | --- | --- | --- | --- | --- |
| N#Cc1ccccc1N1CCN(CC(Cn2nc(-c3ccc(I)cc3)c3c2CCN(C(N)=O)C3)OC(N)=O)CC1 (stereo not shown) [Example 11, Carbamic acid 1-[5-carbamoyl-3-(4-iodo-phenyl)-4,5,6,7-tetrahydro-pyrazolo[4,3-c]pyridin-1-ylmethyl]-2-[4-(2-cyano-phenyl)-piperazin-1-yl]-ethyl Ester] | but not ConA | inhibition | – | – | – | – | – |
| CS(=O)(=O)N1CCc2c(c(-c3ccc(I)cc3)nn2CC(O)CN2CCN(c3ccccc3C#N)CC2)C1 (stereo not shown) [Example 36, 2-(4-{2-Hydroxy-3-[3-(4-iodo-phenyl)-5-methanesulfonyl-4,5,6,7-tetrahydro-pyrazolo[4,3-c]pyridin-1-yl]-propyl}-piperazin-1-yl)-benzonitrile] | but not ConA | inhibition | – | – | – | – | – |
| CC(C)C[C@H](NC(=O)N1CCOCC1)C(=O)N[C@H](/C=C/S(=O)(=O)c1ccccc1)CCc1ccccc1 [LHVS, 4-morpholinecarboxamide, N-[(1S)-3-methyl-1-[[[(1S,2E)-1-(2-phenylethyl)-3-(phenylsulfonyl)-2-propenyl]amino]carbonyl]butyl]-] | not affected | – | strongly inhibited | the p10Ii fragment was seen | strongly inhibited | – | – |
| C[C@]12C=CC(=O)C=C1CC[C@@H]1[C@@H]2C(=O)C[C@@]2(C)[C@H]1CC[C@]2(O)C(=O)CO [Prednisone, prednisone] | – | – | – | – | – | inhibit both the immediate and the late phase responses | inhibit both the immediate and the late phase responses |
